Test results as given in ChEMBL document CHEMBL3351627, “Design and synthesis of 3-isoxazolidone derivatives as new Chlamydia trachomatis inhibitors” (Bioorg Med Chem Lett, 2014).
The source made the active and inactive calls. The rule behind the calls is not given here.

Tests used:
Chlamydia trachomatis [1] = assay: Bactericidal activity against Chlamydia trachomatis serovar L2 infected in human HeLa cells assessed as reduction in inclusion forming unit compound treated at 5 to 25 uM for 1 hr prior infection measured 24 hrs post infection by immunofluorescence assay in presence of 200 uM iron citrate; format: functional, organism-based
Chlamydia trachomatis [2] = assay: Bacteriostatic activity against Chlamydia trachomatis serovar L2 infected in human HeLa cells assessed as growth inhibition compound treated at >100 uM for 1 hr prior infection measured 24 hrs post infection by microscopy in presence of 200 uM iron citrate; format: functional, organism-based
Chlamydia trachomatis [3] = assay: Bacteriostatic activity against Chlamydia trachomatis serovar L2 infected in human HeLa cells assessed as growth inhibition compound treated at >100 uM for 1 hr prior infection measured 24 hrs post infection by microscopy; format: functional, organism-based
[4] = Iron chelating activity of the compound at pH 7.4 by UV-visible spectrophotometric titration; format: physicochemical
Chlamydia trachomatis [5] = assay: Bactericidal activity against Chlamydia trachomatis serovar L2 infected in human HeLa cells assessed as growth inhibition compound treated for 1 hr prior infection measured 24 hrs post infection by microscopy; format: functional, organism-based
[6] = Cytotoxicity against mouse fibroblasts at 5 to 200 uM after 24 to 48 hrs by trypan blue exclusion assay; format: cell-based; conditions: fibroblast
Chlamydia trachomatis [7] = assay: Bactericidal activity against Chlamydia trachomatis serovar L2 infected in human HeLa cells assessed as growth inhibition compound treated at 50 to 200 uM for 1 hr prior infection measured 24 hrs post infection by microscopy; format: functional, organism-based
HeLa = assay: Cytotoxicity against human HeLa cells at 5 to 200 uM after 24 to 48 hrs by trypan blue exclusion assay; format: cell-based
Chlamydia trachomatis [8] = assay: Bactericidal activity against Chlamydia trachomatis serovar L2 infected in human HeLa cells assessed as growth inhibition compound treated at 5 to 200 uM for 1 hr prior infection measured 24 hrs post infection by microscopy; format: functional, organism-based
Chlamydia trachomatis [9] = assay: Bactericidal activity against Chlamydia trachomatis serovar L2 infected in human HeLa cells assessed as growth inhibition compound treated at 100 to 200 uM for 1 hr prior infection measured 24 hrs post infection by microscopy in presence of 200 uM iron citrate; format: functional, organism-based
Chlamydia trachomatis [10] = assay: Bactericidal activity against Chlamydia trachomatis serovar L2 infected in human HeLa cells assessed as growth inhibition compound treated at 200 uM for 1 hr prior infection measured 24 hrs post infection by microscopy; format: functional, organism-based

For `N[C@@H]1CONC1=O`, the Activity (Chlamydia trachomatis [1]) was “Active”.

In the case of `CC(=O)N(O)CCCCCNC(=O)CCC(=O)N(O)CCCCCNC(=O)CCC(=O)N(O)CCCCCN`, the “growth inhibition (GI)” value (Chlamydia trachomatis [2]) is reported as “inactive” and the “growth inhibition (GI)” value (Chlamydia trachomatis [3]) is reported as “Active”.

With `O=C(NCCN1OC[C@@H](NC(=O)c2cccc(O)c2O)C1=O)c1cccc(O)c1O` the Activity [4] was “Active”, the “growth inhibition (GI)” value (Chlamydia trachomatis [5]) was “Dose-dependent effect” and the Activity [6] was “Non-toxic”. The Activity (Chlamydia trachomatis [1]) was “Active”, the “growth inhibition (GI)” value (Chlamydia trachomatis [7]) was “Active” and the Activity (HeLa) was “Non-toxic”.

In the case of `O=C(NCCN1OC[C@@H](NC(=O)c2ccc3ccccc3n2)C1=O)c1ccc2ccccc2n1`, the Activity [4] is reported as “Not Active”, the “growth inhibition (GI)” value (Chlamydia trachomatis [5]) is reported as “Dose-dependent effect” and the Activity [6] is reported as “Non-toxic”. The Activity (Chlamydia trachomatis [1]) was “Active”, the Activity (HeLa) was “Non-toxic” and the “growth inhibition (GI)” value (Chlamydia trachomatis [8]) was “inactive”.

In the case of `O=C(NCCN1OC[C@@H](NC(=O)c2ccc3cccc(O)c3n2)C1=O)c1ccc2cccc(O)c2n1`, the Activity [4] is reported as “Not Active”, the “growth inhibition (GI)” value (Chlamydia trachomatis [5]) is reported as “Dose-dependent effect” and the Activity [6] is reported as “Non-toxic”. The Activity (Chlamydia trachomatis [1]) was “Active”, the “growth inhibition (GI)” value (Chlamydia trachomatis [9]) was “Active” and the Activity (HeLa) was “Non-toxic”. For the same compound, the “growth inhibition (GI)” value (Chlamydia trachomatis [8]) was “Active”.

For `O=C(N[C@@H]1CON(CCCCOC(=O)c2cccc(O)c2O)C1=O)c1cccc(O)c1O`, the Activity [4] was “Active”, the “growth inhibition (GI)” value (Chlamydia trachomatis [5]) was “Dose-dependent effect” and the Activity [6] was “Non-toxic”. For the same compound, the “growth inhibition (GI)” value (Chlamydia trachomatis [7]) was “Active” and the Activity (HeLa) was “Non-toxic”.

In the case of `COc1cccc(C(=O)N[C@@H]2CON(CCc3c[nH]cn3)C2=O)c1OC`, the “growth inhibition (GI)” value (Chlamydia trachomatis [5]) is reported as “Dose-dependent effect”, the Activity [6] is reported as “Non-toxic” and the Activity (HeLa) is reported as “Non-toxic”. For the same compound, the “growth inhibition (GI)” value (Chlamydia trachomatis [8]) was “inactive”.

For `O=C(N[C@@H]1CON(CCc2c[nH]cn2)C1=O)c1cccc(O)c1O`, the “growth inhibition (GI)” value (Chlamydia trachomatis [5]) was “Dose-dependent effect”, the Activity [6] was “Non-toxic” and the Activity (HeLa) was “Non-toxic”. The “growth inhibition (GI)” value (Chlamydia trachomatis [8]) was “Active”.

For `O=C(NCCOC1=NOC[C@H]1NC(=O)c1cccc(O)c1O)c1cccc(O)c1O`, the Activity [4] was “Active”, the Activity [6] was “Non-toxic” and the Activity (Chlamydia trachomatis [1]) was “Active”. For the same compound, the Activity (HeLa) was “Non-toxic” and the “growth inhibition (GI)” value (Chlamydia trachomatis [10]) was “Active”.

With `O=C(N[C@@H]1CON(CCOC(=O)c2cccc(O)c2O)C1=O)c1cccc(O)c1O` the Activity [4] was “Active”, the “growth inhibition (GI)” value (Chlamydia trachomatis [5]) was “Dose-dependent effect” and the Activity [6] was “Non-toxic”. The Activity (HeLa) was “Non-toxic” and the “growth inhibition (GI)” value (Chlamydia trachomatis [10]) was “Active”.
